From ChEMBL document CHEMBL1201862, “PubChem BioAssay data set” (2004)
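All cell lines were grown in 96-well plates and treated with compound for 48 hours. At the GI50, growth is halved.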 The source made the active and inactive calls. Cut-off read from the data, not from the text of the source: active = GI50 up to about 1.1 µM and inactive = higher.

Columns and labels:
Test in all cases: DTP human tumour cell line panel, 48 h
NCI-H23 = test system: NCI-H23
COLO 205 = test system: COLO 205
TK-10 = test system: TK-10
SF-295 = test system: SF-295
MDA-N = test system: MDA-N
NCI-H522 = test system: NCI-H522
SW-620 = test system: SW-620
MDA-MB-231 = test system: MDA-MB-231
OVCAR-8 = test system: OVCAR-8
OVCAR-3 = test system: OVCAR-3
HT-29 = test system: HT-29
NCI/ADR-RES = test system: NCI/ADR-RES
UACC-257 = test system: UACC-257
OVCAR-4 = test system: OVCAR-4
SK-OV-3 = test system: SK-OV-3
K562 = test system: K562
MDA-MB-435 = test system: MDA-MB-435
Malme-3M = test system: Malme-3M
NCI-H460 = test system: NCI-H460
M14 = test system: M14
HOP-92 = test system: HOP-92
CCRF-CEM = test system: CCRF-CEM
EKVX = test system: EKVX
SNB-19 = test system: SNB-19
SK-MEL-28 = test system: SK-MEL-28
MCF7 = test system: MCF7
KM12 = test system: KM12
SK-MEL-5 = test system: SK-MEL-5
MOLT-4 = test system: MOLT-4
PC-3 = test system: PC-3
SK-MEL-2 = test system: SK-MEL-2
LOX IMVI = test system: LOX IMVI
UACC-62 = test system: UACC-62
SNB-75 = test system: SNB-75
SF-268 = test system: SF-268
ACHN = test system: ACHN
IGROV-1 = test system: IGROV-1
T47D = test system: T47D
RPMI-8226 = test system: RPMI-8226
OVCAR-5 = test system: OVCAR-5
HCT-15 = test system: HCT-15
SN12C = test system: SN12C
Hs-578T = test system: Hs-578T
UO-31 = test system: UO-31
SF-539 = test system: SF-539
786-0 = test system: 786-0
U-251 = test system: U-251
DU-145 = test system: DU-145
BT-549 = test system: BT-549
SR = test system: SR
A498 = test system: A498
HCC 2998 = test system: HCC 2998
CAKI-1 = test system: CAKI-1
HOP-62 = test system: HOP-62
A549 = test system: A549
HCT-116 = test system: HCT-116
RXF 393 = test system: RXF 393
HL-60 = test system: HL-60
NCI-H226 = test system: NCI-H226

With `O=C(O)c1c2c(c(O)c3c1CN(C1CCCCC1)CO3)OCN(C1CCCCC1)C2` the GI50 (NCI-H23) was > 100 µM (inactive), the GI50 (COLO 205) was > 100 µM (inactive) and the GI50 (TK-10) was > 100 µM (inactive). The GI50 (SF-295) was 92.7 µM (inactive), the GI50 (MDA-N) was > 100 µM (inactive) and the GI50 (NCI-H522) was 29.1 µM (inactive). For the same compound, the GI50 (SW-620) was 22 µM (inactive), the GI50 (MDA-MB-231) was 46.7 µM (inactive) and the GI50 (OVCAR-8) was 45.1 µM (inactive). The GI50 (OVCAR-3) was 69 µM (inactive), the GI50 (HT-29) was > 100 µM (inactive) and the GI50 (NCI/ADR-RES) was > 100 µM (inactive). For the same compound, the GI50 (UACC-257) was > 100 µM (inactive), the GI50 (OVCAR-4) was > 100 µM (inactive) and the GI50 (SK-OV-3) was > 100 µM (inactive). The GI50 (K562) was 31.3 µM (inactive), the GI50 (MDA-MB-435) was 58.1 µM (inactive) and the GI50 (Malme-3M) was > 100 µM (inactive). For the same compound, the GI50 (NCI-H460) was 19 µM (inactive), the GI50 (M14) was > 100 µM (inactive) and the GI50 (HOP-92) was > 100 µM (inactive). For the same compound, the GI50 (CCRF-CEM) was 10.4 µM (inactive), the GI50 (EKVX) was 47.1 µM (inactive) and the GI50 (SNB-19) was > 100 µM (inactive). The GI50 (SK-MEL-28) was > 100 µM (inactive), the GI50 (MCF7) was 20.1 µM (inactive) and the GI50 (KM12) was > 100 µM (inactive). The GI50 (SK-MEL-5) was > 100 µM (inactive), the GI50 (MOLT-4) was 18.5 µM (inactive) and the GI50 (PC-3) was > 100 µM (inactive). The GI50 (SK-MEL-2) was > 100 µM (inactive), the GI50 (LOX IMVI) was 21.3 µM (inactive) and the GI50 (UACC-62) was > 100 µM (inactive). For the same compound, the GI50 (SNB-75) was > 100 µM (inactive), the GI50 (SF-268) was 46.3 µM (inactive) and the GI50 (ACHN) was > 100 µM (inactive). For the same compound, the GI50 (IGROV-1) was 74.5 µM (inactive), the GI50 (T47D) was > 100 µM (inactive) and the GI50 (RPMI-8226) was 40.5 µM (inactive). For the same compound, the GI50 (OVCAR-5) was > 100 µM (inactive), the GI50 (HCT-15) was greater than 100 µM and the GI50 (SN12C) was 27.2 µM (inactive). For the same compound, the GI50 (Hs-578T) was > 100 µM (inactive), the GI50 (UO-31) was > 100 µM (inactive) and the GI50 (SF-539) was 37 µM (inactive). The GI50 (786-0) was 68.4 µM (inactive), the GI50 (U-251) was 42.6 µM (inactive) and the GI50 (DU-145) was > 100 µM (inactive). The GI50 (BT-549) was > 100 µM (inactive), the GI50 (SR) was 27.2 µM (inactive) and the GI50 (A498) was > 100 µM (inactive). For the same compound, the GI50 (HCC 2998) was 21.6 µM (inactive), the GI50 (CAKI-1) was > 100 µM (inactive) and the GI50 (HOP-62) was 83.2 µM (inactive). For the same compound, the GI50 (A549) was > 100 µM (inactive), the GI50 (HCT-116) was 39.3 µM (inactive) and the GI50 (RXF 393) was 63.4 µM (inactive).
In the case of `Cc1cccc(Nc2cc(Cl)nc(SCC(=O)O)n2)c1C` [PIRINIXIC ACID], the GI50 (NCI-H23) is reported as > 100 µM (inactive), the GI50 (HL-60) is reported as > 100 µM (inactive) and the GI50 (COLO 205) is reported as > 100 µM (inactive). The GI50 (TK-10) was > 100 µM (inactive), the GI50 (SF-295) was > 100 µM (inactive) and the GI50 (MDA-N) was > 100 µM (inactive). For the same compound, the GI50 (NCI-H522) was > 100 µM (inactive), the GI50 (SW-620) was > 100 µM (inactive) and the GI50 (MDA-MB-231) was > 100 µM (inactive). For the same compound, the GI50 (OVCAR-8) was > 100 µM (inactive), the GI50 (OVCAR-3) was > 100 µM (inactive) and the GI50 (HT-29) was > 100 µM (inactive). The GI50 (NCI/ADR-RES) was > 100 µM (inactive), the GI50 (UACC-257) was > 100 µM (inactive) and the GI50 (OVCAR-4) was > 100 µM (inactive). For the same compound, the GI50 (SK-OV-3) was > 100 µM (inactive), the GI50 (K562) was 87.5 µM (inactive) and the GI50 (MDA-MB-435) was > 100 µM (inactive). The GI50 (Malme-3M) was > 100 µM (inactive), the GI50 (NCI-H460) was > 100 µM (inactive) and the GI50 (NCI-H226) was > 100 µM (inactive). For the same compound, the GI50 (M14) was > 100 µM (inactive), the GI50 (HOP-92) was > 100 µM (inactive) and the GI50 (CCRF-CEM) was > 100 µM (inactive). For the same compound, the GI50 (EKVX) was > 100 µM (inactive), the GI50 (SNB-19) was > 100 µM (inactive) and the GI50 (SK-MEL-28) was > 100 µM (inactive). For the same compound, the GI50 (MCF7) was > 100 µM (inactive), the GI50 (KM12) was > 100 µM (inactive) and the GI50 (SK-MEL-5) was > 100 µM (inactive). For the same compound, the GI50 (MOLT-4) was 63.1 µM (inactive), the GI50 (PC-3) was > 100 µM (inactive) and the GI50 (SK-MEL-2) was > 100 µM (inactive). The GI50 (LOX IMVI) was > 100 µM (inactive), the GI50 (UACC-62) was > 100 µM (inactive) and the GI50 (SNB-75) was > 100 µM (inactive). For the same compound, the GI50 (ACHN) was > 100 µM (inactive), the GI50 (IGROV-1) was > 100 µM (inactive) and the GI50 (T47D) was > 100 µM (inactive). The GI50 (RPMI-8226) was 97.7 µM (inactive), the GI50 (OVCAR-5) was > 100 µM (inactive) and the GI50 (HCT-15) was greater than 100 µM. For the same compound, the GI50 (SN12C) was > 100 µM (inactive), the GI50 (Hs-578T) was > 100 µM (inactive) and the GI50 (SF-539) was > 100 µM (inactive). The GI50 (786-0) was > 100 µM (inactive), the GI50 (U-251) was > 100 µM (inactive) and the GI50 (DU-145) was > 100 µM (inactive). For the same compound, the GI50 (BT-549) was > 100 µM (inactive), the GI50 (SR) was > 100 µM (inactive) and the GI50 (A498) was > 100 µM (inactive). For the same compound, the GI50 (CAKI-1) was > 100 µM (inactive), the GI50 (HOP-62) was > 100 µM (inactive) and the GI50 (A549) was > 100 µM (inactive). The GI50 (HCT-116) was > 100 µM (inactive) and the GI50 (RXF 393) was > 100 µM (inactive).
For `COC(=O)/C=C\Sc1ccn(/C=C\C(=O)OC)c(=S)n1`, the GI50 (NCI-H23) was 25.8 µM (inactive), the GI50 (HL-60) was > 100 µM (inactive) and the GI50 (COLO 205) was 66.5 µM (inactive). For the same compound, the GI50 (TK-10) was 27.9 µM (inactive), the GI50 (MDA-N) was 27.3 µM (inactive) and the GI50 (NCI-H522) was 16.1 µM (inactive). The GI50 (SW-620) was 26 µM (inactive), the GI50 (MDA-MB-231) was 26.1 µM (inactive) and the GI50 (OVCAR-8) was 19.2 µM (inactive). The GI50 (OVCAR-3) was 13.8 µM (inactive), the GI50 (HT-29) was 22.2 µM (inactive) and the GI50 (NCI/ADR-RES) was 19.6 µM (inactive). The GI50 (UACC-257) was 28.6 µM (inactive), the GI50 (OVCAR-4) was 16.9 µM (inactive) and the GI50 (K562) was 38.5 µM (inactive). For the same compound, the GI50 (MDA-MB-435) was 23.1 µM (inactive), the GI50 (Malme-3M) was 22.4 µM (inactive) and the GI50 (NCI-H460) was > 10 µM (inactive). The GI50 (M14) was 49.9 µM (inactive), the GI50 (HOP-92) was 18.5 µM (inactive) and the GI50 (CCRF-CEM) was > 100 µM (inactive). The GI50 (EKVX) was 26.2 µM (inactive), the GI50 (SNB-19) was 21.8 µM (inactive) and the GI50 (SK-MEL-28) was 29.9 µM (inactive). For the same compound, the GI50 (MCF7) was 14.3 µM (inactive), the GI50 (KM12) was 12.4 µM (inactive) and the GI50 (SK-MEL-5) was 24.1 µM (inactive). The GI50 (PC-3) was 19.1 µM (inactive), the GI50 (SK-MEL-2) was 19.9 µM (inactive) and the GI50 (LOX IMVI) was 2.77 µM (inactive). The GI50 (SNB-75) was 22.9 µM (inactive), the GI50 (SF-268) was 24.4 µM (inactive) and the GI50 (ACHN) was 18.2 µM (inactive). For the same compound, the GI50 (IGROV-1) was 16.9 µM (inactive), the GI50 (T47D) was 18.4 µM (inactive) and the GI50 (RPMI-8226) was 46 µM (inactive). For the same compound, the GI50 (OVCAR-5) was 38.5 µM (inactive), the GI50 (HCT-15) was 16.7 µM and the GI50 (SN12C) was 23.6 µM (inactive). The GI50 (Hs-578T) was 25.5 µM (inactive), the GI50 (UO-31) was 25.1 µM (inactive) and the GI50 (SF-539) was 18.4 µM (inactive). For the same compound, the GI50 (U-251) was 19.9 µM (inactive), the GI50 (DU-145) was > 100 µM (inactive) and the GI50 (BT-549) was 22.9 µM (inactive). The GI50 (SR) was 13.7 µM (inactive), the GI50 (A498) was 20.2 µM (inactive) and the GI50 (HCC 2998) was 37.1 µM (inactive). The GI50 (CAKI-1) was 16.6 µM (inactive), the GI50 (HOP-62) was 17.1 µM (inactive) and the GI50 (A549) was 22.1 µM (inactive). For the same compound, the GI50 (RXF 393) was 10.5 µM (inactive).
